Values of other authors as cited in patent publication US6569404B1, “Phase shift colloids as ultrasound contrast agents” (priority 1993, dated 2003).
Like-named read-outs stand apart in the source and are kept apart here.

Conditions: cited from earlier work
[1] = boiling point under standard pressure conditions, chemical list arranged by total atoms
[2] = Chemical List of low boiling liquids, Example 45
[3] = dispersed phase of emulsions of Example 18

| Structure (SMILES) | Boiling Point [2] | further results |
| --- | --- | --- |
| CC(C(F)(F)F)C(F)(F)F [1,1,1,3,3,3-hexafluoro-2-methyl-propane] |  | Boiling Point [1]: 21.5 degrees Celcius |
| FCCC(F)(F)F [1,1,1,3-tetrafluoro-propane] |  | Boiling Point [1]: 29.4 degrees Celcius |
| CCC(F)(F)F [1,1,1-trifluoro propane] |  | Boiling Point [1]: −13 degrees Celcius |
| COCC(F)(F)F [1,1,1-trifluoro-2-methoxy-ethane] |  | Boiling Point [1]: 31 degrees Celcius |
| CCCC(F)(F)F [1,1,1-trifluoro-butane] |  | Boiling Point [1]: 16.74 degrees Celcius |
| CCC=C(F)F [1,1-difluoro-but-1-ene] |  | Boiling Point [1]: 3.71 degrees Celcius |
| C=CC=C(F)F [1,1-difluoro-buta-1,3-diene] |  | Boiling Point [1]: 3.5 degrees Celcius |
| Cc1cc2ccccc2c2cc3ccccc3cc12 [1,2-Benzanthracene, 4-methyl] | 1.0 degrees Celcius |  |
| C=C=CC [1,2-Butadiene] | 10.8 degrees Celcius |  |
| FC(F)(Cl)C(F)(F)Cl [1,2-dichloro-tetrafluoro-ethane] |  | Boiling Point [1]: 3.5 degrees Celcius |
| FC(F)=C(F)C(F)=C(F)F [1,3-Butadiene, hexafluoro] | 6.0 degrees Celcius |  |
| C=CC=C [1,3-Butadiene] | −4.4 degrees Celcius |  |
| C#CCCC#CC [1,5-Heptadiyne] | 26.0 degrees Celcius |  |
| FC(F)=C(F)C(F)(F)C(F)(F)F [1-Butene, perfluoro] | 4.8 degrees Celcius |  |
| FC(F)(F)C(F)(F)C(F)(F)C(F)(F)C(F)(F)C(F)(F)C(F)(F)C(F)(F)I [1-Iodoperfluorooctane, reference compound] |  | Boiling Point [3]: 160 °C |
| C=CC#CCCCCC [1-Nonene-3-yne] | 27.0 degrees Celcius |  |
| FC(F)=C(F)C(F)(F)C(F)(F)C(F)(F)F [1-Pentene, perfluoro] | 29.0 degrees Celcius |  |
| CCC(C)(F)F [2,2 difluoro-butane] |  | Boiling Point [1]: 30.92 degrees Celcius |
| C/C=C/C [2-Butene (trans)] | 0.9 degrees Celcius |  |
| FC(=C(F)C(F)(F)F)C(F)(F)F [2-Butene, octafluoro] | 1.2 degrees Celcius |  |
| FC(=C(F)C(F)(F)F)C(F)(F)F [2-Butene, perfluoro] | 0.0 degrees Celcius |  |
| FC(F)(F)C#CC(F)(F)F [2-Butyne, perfluoro] | −24.6 degrees Celcius |  |
| C=C(C)C(F)F [3,3 difluoro-2-methyl-propene] |  | Boiling Point [1]: 28.1 degrees Celcius |
| C=C(C)C(F)(F)F [3,3,3-trifluoro-2-methyl-propene] |  | Boiling Point [1]: 6 degrees Celcius |
| CC[C@H](C)CF [(−)(S)-1-fluoro-2-methyl-butane] |  | Boiling Point [1]: 14.1 degrees Celcius |
| O=C(C(F)(F)F)C(F)(F)F [Acetone, hexafluoro] | −28.0 degrees Celcius |  |

| Structure (SMILES) | Boiling Point [2] | further results |
| --- | --- | --- |
| CC(=O)F [Acetyl fluoride] | 20.8 degrees Celcius |  |
| C#CC(C)C [Acetylene, isopropyl] | 0.0 degrees Celcius |  |
| FC(F)=C=C(F)F [Allene, tetrafluoro] | −38.0 degrees Celcius |  |
| C=C=C [Allene] | −34.5 degrees Celcius |  |
| [Ar] [Argon] | −189.4 degrees Celcius |  |
| FC(F)(F)N=NC(F)(F)F [Azomethane, hexafluoro] | −31.6 degrees Celcius |  |
| CN=NC [Azomethane] | 1.5 degrees Celcius |  |
| O=C(Cl)c1c(Cl)c(Cl)c(Cl)c(Cl)c1Cl [Benzoyl chloride, pentachloro] | 5.0 degrees Celcius |  |
| CCCCON=O [Butyl nitrite] | −77.8 degrees Celcius |  |
| O=C=O [Carbon dioxide] | −78.6 degrees Celcius |  |
| O=C=C=C=O [Carbon suboxide] | 6.8 degrees Celcius |  |
| O=C=S [Carbonyl sulfide] | −50.0 degrees Celcius |  |
| CC=CC#N [Crotononitrile] | 12.0 degrees Celcius |  |
| FC1=C(F)C(F)(F)C1(F)F [Cyclobutene, perfluoro] | 3.0 degrees Celcius |  |
| CCC1CC1 [Cyclopropane, ethyl] | 34.5 degrees Celcius |  |
| CC1CC1 [Cyclopropane, methyl] | 4.0 degrees Celcius |  |
| C1CC1 [Cyclopropane] | −32.7 degrees Celcius |  |
| FC(F)(F)C(F)(F)C(F)(F)C(F)(F)F [Decaflurobutane] | 4.0 degrees Celcius | Boiling Point [3]: −5.8 °C |
| C#CC#C [Diacetylene] | 22.0 degrees Celcius |  |
| FC(F)(F)SSC(F)(F)F [Dimethyl disulfide, hexafluoro] | 34.6 degrees Celcius |  |
| CCN(C)C [Dimethyl ethyl amine] | 36.0 degrees Celcius |  |
| COC.Cl [Dimethyloxonium chloride] | −2.0 degrees Celcius |  |
| FC(F)OCC(F)(F)F [Ether, difluoromethyl 2,2,2-trifluoroethyl] | 28.0 degrees Celcius |  |
| FN(F)C(F)(F)C(F)(F)F [Ethyl amine, perfluoro] | −35.0 degrees Celcius |  |
| CCN [Ethyl amine] | 16.6 degrees Celcius |  |
| CCNC [Ethyl methyl amine] | 36.7 degrees Celcius |  |

| Structure (SMILES) | Boiling Point [2] | further results |
| --- | --- | --- |
| CCOC [Ethyl methyl ether] | 10.8 degrees Celcius |  |
| CCON=O [Ethyl nitrite] | 16.0 degrees Celcius |  |
| C=COCC [Ethyl vinyl ether] | 35.0 degrees Celcius |  |
| C=CCC [Example 1-Butene, 1-Butene] | −6.3 degrees Celcius |  |
| C#CCC [Example 1-Butyne, 1-Butyne] | 8.1 degrees Celcius |  |
| C=CCCC [Example 1-Pentene, 1-Pentene] | 30.0 degrees Celcius |  |
| CC#CC [Example 2-Butyne, 2-Butyne] | 27.0 degrees Celcius |  |
| CC(C)C(F)(F)F [Example 2-Trifluoromethyl-propane, 2-Trifluoromethyl-propane] |  | Boiling Point [1]: 13 degrees Celcius |
| COC=O [Formic acid, methyl ester] | 31.5 degrees Celcius |  |
| C=C1C=CC=C1 [Fulvene] | 7.0 degrees Celcius |  |
| C=C(C)C [Isobutylene] | −6.9 degrees Celcius |  |
| C=CC(=C)C [Isoprene] | 34.0 degrees Celcius |  |
| [Kr] [Krypton] | −153.0 degrees Celcius |  |
| O=S(=O)(Cl)C(F)(F)F [Methane sulfonyl chloride, trifluoro] | 31.6 degrees Celcius |  |
| O=NC(F)(F)Br [Methane, bromo difluoro nitroso] | −12.0 degrees Celcius |  |
| FCBr [Methane, bromo fluoro] | 19.0 degrees Celcius |  |
| FC(Cl)Br (stereo not shown) [Methane, bromo-chloro-fluoro] | 36.0 degrees Celcius |  |
| FC(F)(F)Br [Methane, bromo-trifluoro] | −57.9 degrees Celcius |  |
| O=[N+]([O-])C(F)(F)Cl [Methane, chloro difluoro nitro] | 25.0 degrees Celcius |  |
| FCCl [Methane, chloro fluoro] | −9.1 degrees Celcius |  |
| FC(F)(F)Cl [Methane, chloro trifluoro] | −81.4 degrees Celcius |  |
| FC(F)Cl [Methane, chloro-difluoro] | −40.8 degrees Celcius |  |
| FC(F)(Br)Br [Methane, dibromo difluoro] | 24.5 degrees Celcius |  |
| FC(F)(Cl)Cl [Methane, dichloro difluoro] | −29.8 degrees Celcius |  |
| FC(Cl)Cl [Methane, dichloro-fluoro] | 9.0 degrees Celcius |  |
| ClCCl [Methane, dichloro] | 40.0 degrees Celcius |  |

| Structure (SMILES) | Boiling Point [2] | further results |
| --- | --- | --- |
| FCF [Methane, difluoro] | −51.6 degrees Celcius |  |
| [SiH3]C[SiH3] [Methane, disilano] | 14.7 degrees Celcius |  |
| CI [Methane, iodo-] | 42.4 degrees Celcius |  |
| FC(F)(F)I [Methane, iodo-trifluoro] | −22.5 degrees Celcius |  |
| O=[N+]([O-])C(F)(F)F [Methane, nitro-trifluoro] | −31.1 degrees Celcius |  |
| O=NC(F)(F)F [Methane, nitroso-trifluoro] | −84.0 degrees Celcius |  |
| FC(F)(F)F [Methane, tetrafluoro] | −129.0 degrees Celcius |  |
| FC(Cl)(Cl)Cl [Methane, trichlorofluoro] | 23.7 degrees Celcius |  |
| C [Methane] | −164.0 degrees Celcius |  |
| FC(F)(F)SCl [Methanesulfenylchloride, trifluoro] | −0.7 degrees Celcius |  |
| CS [Methanethiol] | 62 degrees Celcius |  |
| COC [Methyl ether] | −25.0 degrees Celcius |  |
| COC(C)C [Methyl isopropyl ether] | 32.5 degrees Celcius |  |
| CON=O [Methyl nitrite] | −12.0 degrees Celcius |  |
| [Ne] [Neon] | −246.0 degrees Celcius |  |
| CC(C)(C)C [Neopentane] | 9.5 degrees Celcius |  |
| [N]=O [Nitric oxide] | −151.6 degrees Celcius |  |
| N#N [Nitrogen (N2)] | −196.0 degrees Celcius |  |
| O=NCl [Nitrosyl chloride] | −5.5 degrees Celcius |  |
| [N-]=[N+]=O [Nitrous oxide] | −88.5 degrees Celcius |  |
| O=C(C(F)(F)F)C(F)(F)[N+](=O)[O-] [Pentafluoronitroacetone] |  | Boiling Point [1]: 32.6 degrees Celcius |
| FC(F)(F)C(F)(F)C(F)(F)C(F)(F)C(F)(F)C(F)(F)C(F)(F)C(F)(F)F [Perfluorooctane, reference compound] |  | Boiling Point [3]: 98 °C |
| O=C(O)c1c(Cl)c(Cl)c(Cl)c(Cl)c1C(=O)O [Phthalic acid, tetrachloro] | 2.0 degrees Celcius |  |
| CC1CCC(C)C(C)N1 (stereo not shown) [Piperidine,2,3,6-trimethyl] | 36.0 degrees Celcius |  |
